Test results published in patent publication US9758527B2, “Cyclohexene derivative, preparation method therefor, and pharmaceutical composition for preventing or treating metabolic diseases, containing same as active ingredient” (HYUNDAI PHARM CO., LTD., priority 2014, dated 2017).
Like-named read-outs stand apart in the source and are kept apart here.

Experiments:
blood glucose level = experiment: Oral glucose tolerance test (OGTT) in high-fat diet model; assay type: in vivo; details: hypoglycemic level, 20 mg/kg oral, glucose 2 g/kg oral after 30 minutes; for inhibition in vivo at 20 mg/kg: Mus musculus, 2 h, read-out: % AUC
Protocol: To evaluate in vivo effective effects of the cyclohexene derivatives according to the present invention, experiments were carried out, as follows.
Specifically, male C57BL/6J (C57 black 6) […] (8 to 10 weeks old) in a high-fat diet model were acclimated for at least 7 days, and only healthy rat populations were selected and subjected to an oral glucose tolerance test (OGTT). The rats were fasted for 12 to 15 hours, and then randomly divided into groups with five rats per group. Thereafter, each of the compounds of Examples 1, 14, 48, 69, 80, 118, 139, 147, 148, 169, 190, 199, 200, 204, 227, and Comparative Examples 1 and 2 according to the present invention was administered to the rats at a dose of 20 mg/kg. In this case, a vehicle (0.5%, carboxymethyl cellulose (CMC)) was administered as an untreated group, and the dose of the compound administered together with the vehicle was orally administered at 10 ml/kg. After 30 minutes of administration, glucose (2 g/kg) was orally administered at a dose of 10 ml/kg. A blood glucose level was measured using an Accu-Chek Active Strip (Rosche Diagnostic Co.). In this case, the glucose level in blood collected via caudal venipuncture was measured at time points of −30, 0, 20, 40, 60, and 120 minutes after glucose administration.
In Table 3, the unit “% AUC (area under the curve)” represents a hypoglycemic level.

[1] = molecular target: T1, G protein-coupled receptor 119 (GPR-119) (Mesocricetus auratus, UniProt A0A1U8CD06); experiment: Evaluation of cAMP activity in HIT-T15 cells (HTRF cAMP dynamic kit); assay type: cell-based, hamster; details: cAMP activation
T1 construct: hamster-derived β-cells containing G protein-coupled receptor 119 (GPR-119), HIT-T15 cells; host or cells: HIT-T15 (hamster pancreatic β-cells)
T1 sequence (A0A1U8CD06 1-334): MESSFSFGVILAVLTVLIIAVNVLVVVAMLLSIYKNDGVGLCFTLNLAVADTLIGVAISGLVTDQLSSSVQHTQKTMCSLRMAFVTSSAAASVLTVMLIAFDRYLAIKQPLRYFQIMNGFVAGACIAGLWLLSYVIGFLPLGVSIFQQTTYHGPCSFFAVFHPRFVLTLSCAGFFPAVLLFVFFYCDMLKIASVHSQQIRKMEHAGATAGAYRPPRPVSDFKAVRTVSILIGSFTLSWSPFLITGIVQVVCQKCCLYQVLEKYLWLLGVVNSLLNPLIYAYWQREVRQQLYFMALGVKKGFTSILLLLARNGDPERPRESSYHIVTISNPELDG
Method in brief: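 HIT-T15 cells, 60,000/well, treated next day with compound at six concentrations ([…]) for 1 h at 37° C. Lysate cAMP quantified by HTRF competitive immunoassay (D2-cAMP, cryptate anti-cAMP); activity taken as change in FRET signal relative to DMSO.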

[2] = EC50 (nM), 1 h at 37° C., six concentrations
[3] = 1 h at 37° C., six concentrations, read-out: EC50

SMILES	inhibition in vivo at 20 mg/kg (blood glucose level) [%]	EC50 [1, 3] [nM]	EC50 ([1]; read-out: EC50 value) [nM]	other results
CC(C)c1noc(C2CCN(c3ncnc(Nc4ccc(S(C)(=O)=O)cc4F)c3[N+](=O)[O-])CC2)n1 [Comparative Example 1, N-(2-fluoro-4-methylsulfonylphenyl)-5-nitro-6-[4-(3-propan-2-yl-1,2,4-oxadiazol-5-yl)piperidin-1-yl]pyrimidine-4-amine, reference compound]	13.5	–	–	–
CC(C)c1noc(N2CCC(COc3ccc(-c4ccc(S(C)(=O)=O)cc4)nc3)CC2)n1 [Comparative Example 2, 2-(4-methanesulfonylphenyl)-5-({1-[3-(propan-2-yl)-1,2,4-oxadiazol-5-yl]piperidin-4-yl}methoxy)pyridine, reference compound]	15.3	–	–	EC50 [1, 2]: 49 nM
C[C@H](CO)NC(=O)C1CC=C(c2ccc(OCC3CCN(C(=O)OC(C)(C)C)CC3)cc2)CC1 (stereo partly drawn) [Example 1, tert-butyl 4-((4-(4-((R)-1-hydroxypropan-2-ylcarbamoyl)cyclohex-1-enyl)phenoxy)methyl)piperidine-1-carboxylate]	28.5	65	–	–
CC(C)(C)OC(=O)N1CCC(COc2ccc(C3=CCC(C(=O)NC(CO)CO)CC3)nc2)CC1 (centres unmarked) [Example 14, tert-butyl 4-((6-(4-(1,3-dihydroxypropan-2-ylcarbamoyl)cyclohex-1-enyl)pyridin-3-yloxy)methyl)piperidine-1-carboxylate]	21.9	650	–	–
CC(C)(C)OC(=O)N1CCC(COc2ccc(C3=CCC(C(=O)N4CCOCC4)CC3)cc2F)CC1 (centres unmarked) [Example 69, tert-butyl 4-((2-fluoro-4-(4-(morpholine-4-carbonyl)cyclohex-1-enyl)phenoxy)methyl)piperidine-1-carboxylate]	19.1	7	≤ 50	–
CC(C)(C)OC(=O)N1CCC(COc2ccc(C3=CCC(C(=O)NCCO)CC3)cc2)CC1 (centres unmarked) [Example 190, tert-butyl 4-((4-(4-(2-hydroxyethylcarbamoyl)cyclohex-1-enyl)phenoxy)methyl)piperidine-1-carboxylate]	–	–	–	% AUC (blood glucose level): 20.9 % AUC
CC(C)c1noc(N2CCC(COc3ccc(C4=CCC(C(=O)N5CCC(=O)CC5)CC4)cc3)CC2)n1 (centres unmarked) [Example 275, 1-(4-(4-((1-(3-isopropyl-1,2,4-oxadiazol-5-yl)piperidin-4-yl)methoxy)phenyl)cyclohex-3-enecarbonyl)piperidin-4-one]	–	–	–	EC50 [1, 2]: 28 nM; EC50 ([1]; EC50 value): ≤ 50 nM
CC(C)c1noc(N2CCC(COc3ccc(C4=CCC(C(=O)N5CCC(=NO)CC5)CC4)cc3)CC2)n1 (centres unmarked) [Example 276, (4-(hydroxyimino)piperidin-1-yl)(4-(4-((1-(3-isopropyl-1,2,4-oxadiazol-5-yl)piperidin-4-yl)methoxy)phenyl)cyclohex-3-enyl)methanone]	–	29	–	–
CON=C1CCN(C(=O)C2CC=C(c3ccc(OCC4CCN(c5nc(C(C)C)no5)CC4)cc3)CC2)CC1 (centres unmarked) [Example 278, (4-(4-((1-(3-isopropyl-1,2,4-oxadiazol-5-yl)piperidin-4-yl)methoxy)phenyl)cyclohex-3-enyl)(4-(methoxyimino)piperidin-1-yl)methanone]	–	18	≤ 50	–
CON=C1CN(C(=O)C2CC=C(c3ccc(OCC4CCN(c5nc(C(C)C)no5)CC4)cc3)CC2)C1 (centres unmarked) [Example 286, (4-(4-((1-(3-isopropyl-1,2,4-oxadiazol-5-yl)piperidin-4-yl)methoxy)phenyl)cyclohex-3-enyl)(3-(methoxyimino)azetidin-1-yl)methanone]	–	37	≤ 50	–
CC(C)c1noc(N2CCC(COc3ccc(C4=CCC(C(=O)N5CC(O)C5)CC4)cc3)CC2)n1 (centres unmarked) [Example 289, (3-hydroxyazetidin-1-yl)(4-(4-((1-(3-isopropyl-1,2,4-oxadiazol-5-yl)piperidin-4-yl)methoxy)phenyl)cyclohex-3-enyl)methanone]	–	32	≤ 50	–
